Assay results published in patent US20250171457A1, “NITROGEN-CONTAINING HETEROCYCLIC COMPOUND HAVING NRF2 ACTIVATION EFFECT” (CHUGAI SEIYAKU KABUSHIKI KAISHA, priority 2022, published 2025).

Tested on: Nrf2 transcriptional activity (pARE-Luc reporter) in HepG2 cells
Assay: In vitro Nrf2 transcriptional activity measurement by ARE-dependent reporter assay in HepG2 cell
Format: cell-based, human
Settings: Homo sapiens; HepG2 cells transfected with pARE-Luc, 4 hours at 37° C.; luciferase activity of Example 1-54 or Example 17-23 at 3.75 μM defined as 100%
Outline: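 Luminescence readout (Bright-Glo) after 4 h, 37° C compound exposure of HepG2 cells carrying the ARE-luciferase vector pGL4.37. Each well converted to % response versus reference compound at 3.75 μM, and EC50 derived from dose-response curves.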

Compound | EC50 [nM]
COc1cc2c(c(-c3cc(N4C5CCC4COC5)c(C(=O)O)cc3F)c1)OCN(C(=O)c1c(Cl)cc(N3CC(OC)C3)cc1Cl)C2 [Compound 18-7, 4-[3-[2,6-Dichloro-4-(3-methoxyazetidin-1-yl)benzoyl]-6-methoxy-2,4-dihydro-1,3-benzoxazin-8-yl]-5-fluoro-2-(3-oxa-8-azabicyclo[3.2.1]octan-8-yl)benzoic acid] | 17
O=C(O)c1cc(F)c(-c2cccc3c2OCN(C(=O)c2c(Cl)cc(OC[C@H]4CCOC4)cc2Cl)C3)cc1N1C2CCC1COC2 [Compound 4-38, 4-[3-[2,6-Dichloro-4-[[(3S)-oxolan-3-yl]methoxy]benzoyl]-2,4-dihydro-1,3-benzoxazin-8-yl]-5-fluoro-2-(3-oxa-8-azabicyclo[3.2.1]octan-8-yl)benzoic acid] | 5.1
COCCN1C[C@H]2CC[C@@H]1CN2c1cc(Cl)c(C(=O)N2COc3c(cccc3-c3cc(N4C5CCC4COC5)c(C(=O)O)cc3F)C2)c(Cl)c1 [Compound 7-16, 4-[3-[2,6-Dichloro-4-[(1R,4R)-5-(2-methoxy-ethyl)-2,5-diazabicyclo[2.2.2]octan-2-yl]benzoyl]-2,4-dihydro-1,3-benzoxazin-8-yl]-5-fluoro-2-(3-oxa-8-azabicyclo[3.2.1]octan-8-yl)benzoic acid] | 7.4
Cc1nc2c(-c3cc(Cl)c(C(=O)N4COc5c(cccc5-c5cc(N6C7CCC6COC7)c(C(=O)O)cc5F)C4)c(Cl)c3)cncc2n1C [Compound 3-8, 4-[3-[2,6-Dichloro-4-(2,3-dimethylimidazo[4,5-c]pyridin-7-yl)benzoyl]-2,4-dihydro-1,3-benzoxazin-8-yl]-5-fluoro-2-(3-oxa-8-azabicyclo[3.2.1]octan-8-yl)benzoic acid] | 17
O=C(O)c1cc(F)c(-c2cccc3c2OCN(C(=O)c2c(Cl)cc(N4CC(F)(F)C(F)(F)C4)cc2Cl)C3)cc1N1C2CCC1COC2 [Compound 1-44, 4-[3-[2,6-Dichloro-4-(3,3,4,4-tetrafluoropyrrolidin-1-yl)benzoyl]-2,4-dihydro-1,3-benzoxazin-8-yl]-5-fluoro-2-(3-oxa-8-azabicyclo[3.2.1]octan-8-yl)benzoic acid] | 6.5
COC1CN(C2CN(c3cc(Cl)c(C(=O)N4COc5c(cccc5-c5cc(N6C7CCC6COC7)c(C(=O)O)cc5F)C4)c(Cl)c3)C2)C1 [Compound 5-13, 4-[3-[2,6-Dichloro-4-[3-(3-methoxyazetidin-1-yl)azetidin-1-yl]benzoyl]-2,4-dihydro-1,3-benzoxazin-8-yl]-5-fluoro-2-(3-oxa-8-azabicyclo[3.2.1]octan-8-yl)benzoic acid] | 2.7
O=C(O)c1cc(F)c(-c2cccc3c2OCN(C(=O)c2c(Cl)cc(N4CCC5(CCOC5)C4)cc2Cl)C3)cc1N1CCOCC1 (stereo not drawn) [Compound 1-49, 4-[3-[2,6-Dichloro-4-(2-oxa-7-azaspiro[4.4]nonan-7-yl)benzoyl]-2,4-dihydro-1,3-benzoxazin-8-yl]-5-fluoro-2-morpholin-4-ylbenzoic acid] | 1.9
C[C@@H]1CN(C)CCN1c1ccc(C(=O)N2COc3c(cccc3-c3cc(N4C5CCC4COC5)c(C(=O)O)cc3F)C2)c(Cl)c1 [Compound 19-8, 4-[3-[2-Chloro-4-[(2R)-2,4-dimethylpiperazin-1-yl]benzoyl]-2,4-dihydro-1,3-benzoxazin-8-yl]-5-fluoro-2-(3-oxa-8-azabicyclo[3.2.1]octan-8-yl)benzoic acid] | 3.9
C[C@@H]1CN(c2cc(Cl)c(C(=O)N3COc4c(cccc4-c4cc(N5C6CCC5COC6)c(C(=O)O)cc4F)C3)c(Cl)c2)CCN1C1COC1 [Compound 10-8, 4-[3-[2,6-Dichloro-4-[(3R)-3-methyl-4-(oxetan-3-yl)piperazin-1-yl]benzoyl]-2,4-dihydro-1,3-benzoxazin-8-yl]-5-fluoro-2-(3-oxa-8-azabicyclo[3.2.1]octan-8-yl)benzoic acid] | 1.5
O=C(O)c1ccc(-c2cccc3c2OCN(C(=O)c2c(Cl)cc(N4CC5(COC5)C4)cc2Cl)C3)cc1N1CCOCC1 [Compound 4-21, 4-[3-[2,6-Dichloro-4-(2-oxa-6-azaspiro[3.3]heptan-6-yl)benzoyl]-2,4-dihydro-1,3-benzoxazin-8-yl]-2-morpholin-4-ylbenzoic acid] | 7.4
COCC1CN(c2cc(Cl)c(C(=O)N3COc4c(cccc4-c4cc(N5C6CCC5COC6)c(C(=O)O)cc4F)C3)c(Cl)c2)C1 [Compound 4-4, 4-[3-[2,6-Dichloro-4-[3-(methoxymethyl)azetidin-1-yl]benzoyl]-2,4-dihydro-1,3-benzoxazin-8-yl]-5-fluoro-2-(3-oxa-8-azabicyclo[3.2.1]octan-8-yl)benzoic acid] | 3.2
Cn1cc(-c2cc(Cl)c(C(=O)N3Cc4cccc(-c5ccc(C(=O)O)c(N6CCOCC6)c5)c4CO3)c(Cl)c2)cn1 [Compound 14-8, 4-[3-[2,6-Dichloro-4-(1-methylpyrazol-4-yl)benzoyl]-1,4-dihydro-2,3-benzoxazin-8-yl]-2-morpholin-4-ylbenzoic acid] | 70
CN1CC[C@@H](Oc2cc(Cl)c(C(=O)N3COc4c(cccc4-c4cc(N5CCOCC5)c(C(=O)O)cc4F)C3)c(Cl)c2)C1 [Compound 4-50, 4-[3-[2,6-Dichloro-4-[(3R)-1-methylpyrrolidin-3-yl]oxybenzoyl]-2,4-dihydro-1,3-benzoxazin-8-yl]-5-fluoro-2-morpholin-4-ylbenzoic acid] | 2.8
O=C(O)c1cc(F)c(-c2cccc3c2OCN(C(=O)c2c(Cl)cc(N4CC5(C4)OCCCCO5)cc2Cl)C3)cc1N1C2CCC1COC2 [Compound 5-6, 4-[3-[2,6-Dichloro-4-(5,10-dioxa-2-azaspiro[3.6]decan-2-yl)benzoyl]-2,4-dihydro-1,3-benzoxazin-8-yl]-5-fluoro-2-(3-oxa-8-azabicyclo[3.2.1]octan-8-yl)benzoic acid] | 2.3
CC(C)N1CCN(c2cc(Cl)c(C(=O)N3Cc4cccc(-c5ccc(C(=O)O)c(N6CCOCC6)c5)c4C(=O)N3)c(Cl)c2)CC1 [Compound 1-76, 4-[2-[2,6-Dichloro-4-(4-propan-2-ylpiperazin-1-yl)benzoyl]-4-oxo-1,3-dihydrophthalazin-5-yl]-2-morpholin-4-ylbenzoic acid] | 5.3
COCCOc1cc(Cl)c(C(=O)N2COc3c(cccc3-c3cc(N4CCOCC4)c(C(=O)O)cc3F)C2)cc1OC [Compound 4-55, 4-[3-[2-Chloro-5-methoxy-4-(2-methoxyethoxy)benzoyl]-2,4-dihydro-1,3-benzoxazin-8-yl]-5-fluoro-2-morpholin-4-ylbenzoic acid] | 2
COCCN1C[C@@H]2C[C@H]1CN2c1cc(Cl)c(C(=O)N2COc3c(cccc3-c3cc(N4C5CCC4COC5)c(C(=O)O)cc3F)C2)c(Cl)c1 [Compound 20-7, 4-[3-[2,6-Dichloro-4-[(1S,4S)-5-(2-methoxyethyl)-2,5-diazabicyclo[2.2.1]heptan-2-yl]benzoyl]-2,4-dihydro-1,3-benzoxazin-8-yl]-5-fluoro-2-(3-oxa-8-azabicyclo[3.2.1]octan-8-yl)benzoic acid] | 14
CC(C)OC1CN(c2cc(Cl)c(C(=O)N3COc4c(cccc4-c4cc(N5C6CCC5COC6)c(C(=O)O)cc4F)C3)c(Cl)c2)C1 [Compound 6-6, 4-[3-[2,6-Dichloro-4-(3-propan-2-yloxy-azetidin-1-yl)benzoyl]-2,4-dihydro-1,3-benzoxazin-8-yl]-5-fluoro-2-(3-oxa-8-azabicyclo[3.2.1]octan-8-yl)benzoic acid] | 12
CC(C)(C)OC(=O)N1CCN(c2cc(Cl)c(C(=O)N3COc4c(cccc4-c4cc(N5CCOCC5)c(C(=O)O)cc4F)C3)c(Cl)c2)CC1 [Compound 4-29, 4-[3-[2,6-Dichloro-4-[4-[(2-methylpropan-2-yl)oxycarbonyl]piperazin-1-yl]benzoyl]-2,4-dihydro-1,3-benzoxazin-8-yl]-5-fluoro-2-morpholin-4-ylbenzoic acid] | 2.1
CC1(O)CC2(CN(c3cc(Cl)c(C(=O)N4COc5c(cccc5-c5cc(N6C7CCC6COC7)c(C(=O)O)cc5F)C4)c(Cl)c3)C2)C1 [Compound 16-1, 4-[3-[2,6-Dichloro-4-(6-hydroxy-6-methyl-2-azaspiro[3.3]heptan-2-yl)benzoyl]-2,4-dihydro-1,3-benzoxazin-8-yl]-5-fluoro-2-(3-oxa-8-azabicyclo[3.2.1]octan-8-yl)benzoic acid] | 13
COCCN1CCN(c2cc(Cl)c(C(=O)N3COc4c(cccc4-c4cc(N5C6CCC5COC6)c(C(=O)O)cc4F)C3)c(Cl)c2)CC1C [Compound 8-5, 4-[3-[2,6-Dichloro-4-[(3S)-4-(2-methoxyethyl)-3-methylpiperazan-1-yl]benzoyl]-2,4-dihydro-1,3-benzoxazin-8-yl]-5-fluoro-2-(3-oxa-8-azabicyclo[3.2.1]octan-8-yl)benzoic acid] | 2.4
CC(C)(O)CCOc1cc(Cl)c(C(=O)N2COc3c(cccc3-c3cc(N4C5CCC4COC5)c(C(=O)O)cc3F)C2)c(Cl)c1 [Compound 4-35, 4-[3-[2,6-Dichloro-4-(3-hydroxy-3-methylbutoxy)benzoyl]-2,4-dihydro-1,3-benzoxazin-8-yl]-5-fluoro-2-(3-oxa-8-azabicyclo[3.2.1]octan-8-yl)benzoic acid] | 20
Cn1cc(-c2cc(Cl)c(C(=O)N3COc4c(ccc(F)c4-c4ccc(C(=O)O)c(N5CCOCC5)c4)C3)c(Cl)c2)cn1 [Compound 13-9, 4-[3-[2,6-Dichloro-4-(1-methylpyrazol-4-yl)benzoyl]-7-fluoro-2,4-dihydro-1,3-benzoxazin-8-yl]-2-morpholin-4-ylbenzoic acid] | 5.2
Cn1cc(-c2cc(Cl)c(C(=O)N3COc4c(ccnc4-c4ccc(C(=O)O)c(N5CCOCC5)c4)C3)c(Cl)c2)cn1 [Compound 18-12, 4-[3-[2,6-Dichloro-4-(1-methylpyrazol-4-yl)benzoyl]-2,4-dihydropyrido[4,3-e][1,3]oxazin-8-yl]-2-morpholin-4-ylbenzoic acid] | 24
